Reference: publication PMC6372683, “Mechanism of the natural product moracin-O derived MO-460 and its targeting protein hnRNPA2B1 on HIF-1α inhibition” (Experimental & Molecular Medicine, 2019)

Tests used:
HIF-1α = HIF-1α accumulation under real hypoxia (1% oxygen), western blotting and immunostaining; type: cell-based, human; details: 24 h
Method: For immunofluorescence observation, Hep3B cells were seeded on microplates at 2 or 5 × 10^4 cells/mL and cultured for 18 h. […] The medium in the microplate wells was then removed and cells were fixed with 3.7% formaldehyde in PBS for 15 min then permeabilized for 5 min with 100% cold MeOH. Cells were washed with PBS containing 1% bovine serum albumin (PBS-1% BSA), and then treated with 5% bovine serum albumin for 20 min. The cells in each well were treated with HIF-1α antibody in PBS-0.1% BSA then placed in a humidified atmosphere of 5% CO2 at 37 °C and incubated for 60 min. After being washed with PBS-0.1% BSA, treated wells of HIF-1α were incubated with Alexa Fluor 488-conjugated mouse anti-IgG antibody in PBS-0.1% BSA then incubated at room temperature for 60 min. After being washed with PBS-0.1% BSA, the dish wells were overlaid with Hoechst 33342 for 5 min at room temperature and then washed with PBS-0.1% BSA. Fluorescence was photographed with an inverted ECLIPSE Ti-U microscope (Nikon Corporation, Japan).

[1] = target: T1, full-length hnRNPA2B1 (1–353 aa) (Homo sapiens, UniProt P22626); assay: BLItz association-dissociation binding assay, full-length hnRNPA2B1; details: 6XHis tagged protein, Con. 5 uM, biotin-MO-460 on streptavidin tip
T1 construct: 1–353 aa; His; made in house; host or cells: bacteria (pET28A vector)
Method: (§1) The binding capacity of hnRNPA2B1 to Biotin-MO-460 was also analyzed using a BLItz™ (Fortebio, Inc., CA, US) instrument with a streptavidin-coated biosensor tip (Pall, USA). The streptavidin-coated tips were pre-wetted for 10 min in an incubation buffer (10 mM HEPES pH 7.4, 1% BSA and 0.05% Tween 20). The streptavidin-coated tips were immobilized with 1 μM Biotin-MO-460 in incubation buffer (10 mM HEPES pH 7.4, 1% BSA and 0.05% Tween 20) for 5 min. […] The concentrations were then incubated with HEPES for another 3 min to desorb the protein. Analysis of the accurate and precise kinetic constants was performed by the BLItz data analysis software (BLItz Pro 1.1).

hnRNPA2B1 RRM (1–193 aa) = target: T2, hnRNPA2B1 RRM (1–193 aa) (Homo sapiens, UniProt P22626); assay: BLItz association-dissociation binding assay, RRM of hnRNPA2B1; details: 6XHis tagged protein, biotin-MO-460 on streptavidin tip
T2 construct: 1–193 aa; His; made in house; host or cells: bacteria (pET28A vector)
Method: as §1

[2] = target: T3, hnRNPA2B1 GRD (202–353 aa) (Homo sapiens, UniProt P22626); assay: BLItz association-dissociation binding assay, GRD of hnRNPA2B1; details: 6XHis tagged protein, Con. 5 uM, biotin-MO-460 on streptavidin tip
T3 construct: 202–353 aa; His; made in house; host or cells: bacteria (pET28A vector)
Method: as §1

[3] = target: T4, hnRNPA2B1 domain-based constructs fused to GFP (Homo sapiens, UniProt P22626); assay: Pull-down assay with GFP-fused domain constructs of hnRNPA2B1; type: binding
T4 construct: expressed in transfected cells

[4] = system: hnRNPA2B1 domain-based constructs fused to GFP; assay: as above; type: binding, human; details: GFP-fused N-terminal RNA recognition motifs

T1 sequence (P22626 whole entry, the tested form may be a part): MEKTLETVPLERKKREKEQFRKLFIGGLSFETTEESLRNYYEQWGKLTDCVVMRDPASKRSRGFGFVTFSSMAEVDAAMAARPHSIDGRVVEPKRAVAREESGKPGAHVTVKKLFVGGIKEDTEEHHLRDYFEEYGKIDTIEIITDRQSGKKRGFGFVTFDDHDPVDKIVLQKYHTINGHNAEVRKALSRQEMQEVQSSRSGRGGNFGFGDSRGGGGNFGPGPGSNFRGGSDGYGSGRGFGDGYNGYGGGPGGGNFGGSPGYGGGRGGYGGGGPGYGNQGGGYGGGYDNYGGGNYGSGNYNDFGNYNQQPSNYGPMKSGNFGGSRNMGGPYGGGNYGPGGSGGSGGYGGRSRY
T3 sequence (P22626 202-353): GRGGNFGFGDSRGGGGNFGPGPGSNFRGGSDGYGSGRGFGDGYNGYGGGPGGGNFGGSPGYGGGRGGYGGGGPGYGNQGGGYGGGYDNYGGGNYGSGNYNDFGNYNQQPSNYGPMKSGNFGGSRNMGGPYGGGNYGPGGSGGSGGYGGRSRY
T2 sequence (P22626 1-193): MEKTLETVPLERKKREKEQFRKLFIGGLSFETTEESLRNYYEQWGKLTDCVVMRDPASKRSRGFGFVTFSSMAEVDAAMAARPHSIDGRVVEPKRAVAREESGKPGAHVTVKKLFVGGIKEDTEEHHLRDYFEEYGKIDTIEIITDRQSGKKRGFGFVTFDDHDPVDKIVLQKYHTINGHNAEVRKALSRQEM

Kd [1] [µM]	Kd (hnRNPA2B1 RRM (1–193 aa))	Kd [2] [µM]	binding of C-terminal glycine-rich domain (GRD) in pull-down ([3]; GFP-fused GRD)	binding of full-length hnRNPA2B1 in pull-down ([3]; GFP-fused full-length hnRNPA2B1)	binding of RRM1, RRM2 and RRM1-RRM2 in pull-down [4]	melting point	Structure (SMILES)	HIF-1α accumulation (HIF-1α)
–	–	–	–	–	–	–	CC(C)(O)[C@H]1Cc2cc3cc(-c4cc(O)cc(O)c4)oc3cc2O1 [(R)-(-)-moracin O, (R)-(-)-moracin-O, reference compound]	reduction in HIF-1α accumulation
11.4	no specific interactions	6.6	strongly bound	strongly bound	did not bind	165.1 to 168.2 °C (dec.)	CC(C)(O)[C@H]1Cc2cc3cc(-c4ccc(OCC(=O)NCCOCCOCCNC(=O)CCCC[C@@H]5SC[C@@H]6NC(=O)N[C@@H]65)cc4)oc3cc2O1 [biotin-MO-460, (R)-5-(2-Oxo-hexahydro-thieno[3,4-d]-imidazol-4-yl)-pentanoic acid-(2-{2-[2-(2-{4-[6-(1-hydroxy-1-methyl-ethyl)-5,6-dihydro-benzo[1,2-b;5,4-b']difuran-2-yl]-phenoxy}-acetyl-amino)-ethoxy]-ethoxy}-ethyl)-amide]	–
